ChEMBL document CHEMBL1148480, “Structure-activity studies of orexin a and orexin B at the human orexin 1 and orexin 2 receptors led to orexin 2 receptor selective and orexin 1 receptor preferring ligands” (J Med Chem, 2004)
Non-standard residues stand in square brackets, D forms with d. Residues, ends and D or L forms follow the SMILES beside them. pGlu = O=C1CC[C@@H](C(=O)O)N1; Ahx = NCCCCCC(=O)O

Target: T1, Orexin/Hypocretin receptor type 1 (Homo sapiens, UniProt O43613)
T1 sequence (O43613 whole entry): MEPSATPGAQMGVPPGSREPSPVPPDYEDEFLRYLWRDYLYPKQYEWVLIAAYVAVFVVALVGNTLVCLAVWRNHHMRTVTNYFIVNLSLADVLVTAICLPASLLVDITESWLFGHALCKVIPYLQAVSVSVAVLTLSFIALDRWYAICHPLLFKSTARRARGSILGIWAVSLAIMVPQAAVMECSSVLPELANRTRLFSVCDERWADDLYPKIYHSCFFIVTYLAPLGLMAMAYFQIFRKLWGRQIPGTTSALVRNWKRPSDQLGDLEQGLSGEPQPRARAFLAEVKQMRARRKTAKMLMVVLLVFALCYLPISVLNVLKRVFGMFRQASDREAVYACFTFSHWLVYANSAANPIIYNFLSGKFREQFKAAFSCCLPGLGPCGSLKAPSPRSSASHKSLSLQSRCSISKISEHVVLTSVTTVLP
Assay: Effective agonist concentration to human orexin receptor type 1 determined using the Xlfit program
Format: functional

| Structure (SMILES) | EC50 [µM] |
| --- | --- |
| CC[C@H](C)[C@H](NC(=O)CNC(=O)[C@H](C)NC(=O)[C@H](C)NC(=O)[C@H](Cc1cnc[nH]1)NC(=O)[C@H](CC(N)=O)NC(=O)CNC(=O)[C@H](C)NC(=O)CNC(=O)[C@H](Cc1cnc[nH]1)NC(=O)[C@H](CC(C)C)NC(=O)[C@H](CC(C)C)NC(=O)[C@H](CCC(=O)O)NC(=O)[C@H](Cc1ccc(O)cc1)NC(=O)[C@H](CC(C)C)NC(=O)[C@H](CCCNC(=N)N)NC(=O)CCCCCNC(=O)[C@H](CC(=O)O)NC(=O)[C@@H]1CCCN1C(=O)[C@H](CC(C)C)NC(=O)[C@@H]1CCCN1C(=O)[C@@H]1CCC(=O)N1)C(=O)N[C@@H](CC(C)C)C(=O)N[C@H](C(=O)N[C@@H](CC(C)C)C(=O)O)[C@@H](C)O ([pGlu]PLPD[Ahx]RLYELLHGAGNHAAGILTL-OH) | 5.52 |
| CC[C@H](C)[C@H](NC(=O)CNC(=O)[C@H](C)NC(=O)[C@H](C)NC(=O)[C@H](Cc1c[nH]cn1)NC(=O)[C@H](CC(N)=O)NC(=O)CNC(=O)[C@H](CO)NC(=O)[C@H](C)NC(=O)[C@H](CCC(N)=O)NC(=O)[C@H](CC(C)C)NC(=O)[C@@H]1CCCN1C(=O)[C@H](CCCN=C(N)N)NC(=O)[C@H](CCC(N)=O)NC(=O)[C@H](CC(C)C)NC(=O)[C@H](CCCN=C(N)N)NC(=O)CNC(=O)[C@H](CCC(N)=O)NC(=O)[C@H](CC(C)C)NC(=O)CN)C(=O)N[C@@H](CC(C)C)C(=O)N[C@H](C(=O)N[C@@H](CCSC)C(N)=O)[C@@H](C)O (H-GLQGRLQRPLQASGNHAAGILTM-NH2) | > 1000 |
| CC[C@H](C)[C@H](NC(=O)CNC(=O)[C@H](C)NC(=O)[C@H](C)NC(=O)[C@H](Cc1c[nH]cn1)NC(=O)[C@H](CC(N)=O)NC(=O)CNC(=O)[C@H](CO)NC(=O)[C@H](C)NC(=O)[C@H](CCC(N)=O)NC(=O)[C@H](CC(C)C)NC(=O)[C@H](CC(C)C)NC(=O)[C@H](CCCN=C(N)N)NC(=O)[C@H](CCC(N)=O)NC(=O)[C@H](CC(C)C)NC(=O)[C@H](CCCN=C(N)N)NC(=O)[C@H](C)NC(=O)[C@H](CCC(N)=O)NC(=O)[C@H](CC(C)C)NC(=O)CN)C(=O)N[C@@H](CC(C)C)C(=O)N[C@H](C(=O)N[C@@H](CCSC)C(N)=O)[C@@H](C)O (H-GLQARLQRLLQASGNHAAGILTM-NH2) | 2.3 |
| CC[C@H](C)[C@H](NC(=O)CNC(=O)[C@H](C)NC(=O)[C@H](C)NC(=O)[C@H](Cc1cnc[nH]1)NC(=O)[C@H](CC(N)=O)NC(=O)CNC(=O)[C@H](CO)NC(=O)[C@H](C)NC(=O)[C@H](CCC(N)=O)NC(=O)[C@H](CC(C)C)NC(=O)[C@H](CC(C)C)NC(=O)[C@@H]1CCCN1C(=O)[C@H](CCC(N)=O)NC(=O)[C@H](CC(C)C)NC(=O)[C@H](CCCNC(=N)N)NC(=O)CNC(=O)[C@H](CCC(N)=O)NC(=O)[C@H](CC(C)C)NC(=O)CN)C(=O)N[C@@H](CC(C)C)C(=O)N[C@H](C(=O)N[C@@H](CCSC)C(N)=O)[C@@H](C)O (H-GLQGRLQPLLQASGNHAAGILTM-NH2) | 17.8 |
| CC[C@H](C)[C@H](NC(=O)CNC(=O)[C@H](C)NC(=O)[C@H](C)NC(=O)[C@H](Cc1c[nH]cn1)NC(=O)[C@H](CC(N)=O)NC(=O)CNC(=O)[C@H](CO)NC(=O)[C@H](C)NC(=O)[C@H](CCC(N)=O)NC(=O)[C@H](CC(C)C)NC(=O)[C@H](CC(C)C)NC(=O)[C@H](CCCN=C(N)N)NC(=O)[C@H](CCC(N)=O)NC(=O)[C@H](CC(C)C)NC(=O)[C@H](CCCN=C(N)N)NC(=O)[C@@H]1CCCN1C(=O)[C@H](CCC(N)=O)NC(=O)[C@H](CC(C)C)NC(=O)CN)C(=O)N[C@@H](CC(C)C)C(=O)N[C@H](C(=O)N[C@@H](CCSC)C(N)=O)[C@@H](C)O (H-GLQPRLQRLLQASGNHAAGILTM-NH2) | 4.46 |
| CC[C@H](C)[C@H](NC(=O)[C@H](C)NC(=O)[C@H](C)NC(=O)[C@H](C)NC(=O)[C@H](Cc1cnc[nH]1)NC(=O)[C@H](CC(N)=O)NC(=O)CNC(=O)[C@H](CO)NC(=O)[C@H](C)NC(=O)[C@H](CCC(N)=O)NC(=O)[C@H](CC(C)C)NC(=O)[C@H](CC(C)C)NC(=O)[C@H](CCCNC(=N)N)NC(=O)[C@H](CCC(N)=O)NC(=O)[C@H](CC(C)C)NC(=O)[C@H](CCCNC(=N)N)NC(=O)CNC(=O)[C@H](CCC(N)=O)NC(=O)[C@H](CC(C)C)NC(=O)CN)C(=O)N[C@@H](CC(C)C)C(=O)N[C@H](C(=O)N[C@@H](CCSC)C(=O)O)[C@@H](C)O (H-GLQGRLQRLLQASGNHAAAILTM-OH) | > 1000 |
| CC[C@H](C)[C@H](NC(=O)CNC(=O)[C@H](C)NC(=O)[C@H](C)NC(=O)[C@H](Cc1cnc[nH]1)NC(=O)[C@H](CC(N)=O)NC(=O)CNC(=O)[C@H](C)NC(=O)CNC(=O)[C@H](Cc1cnc[nH]1)NC(=O)[C@H](CC(C)C)NC(=O)[C@H](CC(C)C)NC(=O)[C@H](CCC(=O)O)NC(=O)[C@H](Cc1ccc(O)cc1)NC(=O)[C@H](CC(C)C)NC(=O)[C@H](CCCNC(=N)N)NC(=O)[C@H](CS)NC(=O)[C@H](CO)NC(=O)[C@H](CS)NC(=O)[C@@H](NC(=O)[C@H](CCCCN)NC(=O)[C@H](CCC(N)=O)NC(=O)[C@H](CCCNC(=N)N)NC(=O)[C@H](CS)NC(=O)[C@H](CS)NC(=O)[C@H](CC(=O)O)NC(=O)[C@@H]1CCCN1C(=O)[C@H](CC(C)C)NC(=O)[C@@H]1CCCN1C(=O)[C@@H]1CCC(=O)N1)[C@@H](C)O)C(=O)N[C@@H](CC(C)C)C(=O)N[C@H](C(=O)N[C@@H](CC(C)C)C(=O)O)[C@@H](C)O | 0.16 |
| CC[C@H](C)[C@H](NC(=O)CNC(=O)[C@H](C)NC(=O)[C@H](C)NC(=O)[C@H](Cc1cnc[nH]1)NC(=O)[C@H](CC(N)=O)NC(=O)CNC(=O)[C@H](CO)NC(=O)[C@H](C)NC(=O)[C@H](CCC(N)=O)NC(=O)[C@H](CC(C)C)NC(=O)[C@H](CC(C)C)NC(=O)[C@H](C)NC(=O)[C@H](CCC(N)=O)NC(=O)[C@H](CC(C)C)NC(=O)[C@H](CCCNC(=N)N)NC(=O)CNC(=O)[C@H](CCC(N)=O)NC(=O)[C@H](CC(C)C)NC(=O)CN)C(=O)N[C@@H](CC(C)C)C(=O)N[C@H](C(=O)N[C@@H](CCSC)C(=O)O)[C@@H](C)O (H-GLQGRLQALLQASGNHAAGILTM-OH) | 4.34 |

Second part, the molecule after the results:

| EC50 [µM] | Structure (SMILES) |
| --- | --- |
| > 1000 | CC[C@H](C)[C@H](NC(=O)CNC(=O)[C@H](C)NC(=O)[C@H](C)NC(=O)[C@H](Cc1c[nH]cn1)NC(=O)[C@H](CC(N)=O)NC(=O)CNC(=O)[C@H](C)NC(=O)CNC(=O)[C@H](Cc1c[nH]cn1)NC(=O)[C@H](CC(C)C)NC(=O)[C@H](CC(C)C)NC(=O)CCCCCNC(=O)[C@H](CC(=O)O)NC(=O)[C@@H]1CCCN1C(=O)[C@H](CC(C)C)NC(=O)[C@@H]1CCCN1C(=O)[C@@H]1CCC(=O)N1)C(=O)N[C@@H](CC(C)C)C(=O)N[C@H](C(=O)N[C@@H](CC(C)C)C(=O)O)[C@@H](C)O ([pGlu]PLPD[Ahx]LLHGAGNHAAGILTL-OH) |
| 6.95 | CC[C@H](C)[C@H](NC(=O)CNC(=O)[C@H](C)NC(=O)[C@H](C)NC(=O)[C@H](Cc1c[nH]cn1)NC(=O)[C@H](CC(N)=O)NC(=O)CNC(=O)[C@H](CO)NC(=O)[C@H](C)NC(=O)[C@H](CCC(N)=O)NC(=O)[C@H](CC(C)C)NC(=O)[C@H](CC(C)C)NC(=O)[C@H](CCCN=C(N)N)NC(=O)[C@H](CCC(N)=O)NC(=O)[C@H](CC(C)C)NC(=O)[C@H](C)NC(=O)CNC(=O)[C@H](CCC(N)=O)NC(=O)[C@H](CC(C)C)NC(=O)CN)C(=O)N[C@@H](CC(C)C)C(=O)N[C@H](C(=O)N[C@@H](CCSC)C(=O)O)[C@@H](C)O (H-GLQGALQRLLQASGNHAAGILTM-OH) |
| 2.21 | CC[C@H](C)[C@H](NC(=O)CNC(=O)[C@H](C)NC(=O)[C@H](C)NC(=O)[C@H](Cc1c[nH]cn1)NC(=O)[C@H](CC(N)=O)NC(=O)[C@H](C)NC(=O)[C@H](CO)NC(=O)[C@H](C)NC(=O)[C@H](CCC(N)=O)NC(=O)[C@H](CC(C)C)NC(=O)[C@H](CC(C)C)NC(=O)[C@H](CCCN=C(N)N)NC(=O)[C@H](CCC(N)=O)NC(=O)[C@H](CC(C)C)NC(=O)[C@H](CCCN=C(N)N)NC(=O)CNC(=O)[C@H](CCC(N)=O)NC(=O)[C@H](CC(C)C)NC(=O)CN)C(=O)N[C@@H](CC(C)C)C(=O)N[C@H](C(=O)N[C@@H](CCSC)C(=O)O)[C@@H](C)O (H-GLQGRLQRLLQASANHAAGILTM-OH) |
| > 1000 | CC[C@H](C)[C@H](NC(=O)CNC(=O)[C@H](C)NC(=O)[C@H](C)NC(=O)[C@@H](N)Cc1cnc[nH]1)C(=O)N[C@@H](CC(C)C)C(=O)N[C@H](C(=O)N[C@@H](CC(C)C)C(N)=O)[C@@H](C)O (H-HAAGILTL-NH2) |
| 11.4 | CC[C@H](C)[C@H](NC(=O)CNC(=O)[C@H](C)NC(=O)[C@H](C)NC(=O)[C@H](Cc1c[nH]cn1)NC(=O)[C@H](CC(N)=O)NC(=O)CNC(=O)[C@H](CO)NC(=O)[C@H](C)NC(=O)[C@H](CCC(N)=O)NC(=O)[C@H](CC(C)C)NC(=O)[C@H](CC(C)C)NC(=O)[C@H](CCCNC(=N)N)NC(=O)[C@H](CCC(N)=O)NC(=O)[C@H](C)NC(=O)[C@H](CCCNC(=N)N)NC(=O)CNC(=O)[C@H](CCC(N)=O)NC(=O)[C@H](CC(C)C)NC(=O)CN)C(=O)N[C@@H](CC(C)C)C(=O)N[C@H](C(=O)N[C@@H](CCSC)C(=O)O)[C@@H](C)O (H-GLQGRAQRLLQASGNHAAGILTM-OH) |
| 5.26 | CC[C@H](C)[C@H](NC(=O)CNC(=O)[C@H](C)NC(=O)[C@H](C)NC(=O)[C@H](Cc1c[nH]cn1)NC(=O)[C@H](CC(N)=O)NC(=O)CNC(=O)[C@H](CO)NC(=O)[C@H](C)NC(=O)[C@H](CCC(N)=O)NC(=O)[C@H](CC(C)C)NC(=O)[C@H](CC(C)C)NC(=O)[C@H](CCCN=C(N)N)NC(=O)[C@@H]1CCCN1C(=O)[C@H](CC(C)C)NC(=O)[C@H](CCCN=C(N)N)NC(=O)CNC(=O)[C@H](CCC(N)=O)NC(=O)[C@H](CC(C)C)NC(=O)CN)C(=O)N[C@@H](CC(C)C)C(=O)N[C@H](C(=O)N[C@@H](CCSC)C(N)=O)[C@@H](C)O (stereo in doubt; form 1) |
